This is an account of results in PubChem BioAssay (NCI).

Among the test systems are SW-620 colon; NCI-H226 lung; OVCAR-5 ovarian; OVCAR-3 ovarian; HCT-15 colon; SF-539 CNS; SK-MEL-5 melanoma; TK-10 renal; K-562 leukemia; A549 NSCLC; HT29 colon; SF-268 CNS; LOX IMVI melanoma; PC-3 prostate.
What all share (assay): NCI tumour cell line growth inhibition, 48 h

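Compound exposure: 48 hours, 5 concentrations, 96-well plates. GI50 is the concentration that inhibits growth by half. TGI denotes the concentration required for complete inhibition of growth.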

For the compound `C/C(CN1C(=O)c2ccccc2C1=O)=N\NS(=O)(=O)c1ccc(Cl)cc1`, the TGI in the assay with SW-620 colon, in the assay with NCI-H226 lung, in the assay with OVCAR-5 ovarian, in the assay with OVCAR-3 ovarian, in the assay on HCT-15 colon and in the assay on SF-539 CNS was above 100 µM throughout. For the same compound, the TGI in the assay on SK-MEL-5 melanoma, with TK-10 renal, in the assay on K-562 leukemia, in the assay on A549 NSCLC and in the assay with HT29 colon was above 100 µM each time.
On to `COCCOCOC(CCCCO)c1cc(C)c(O[Si](C)(C)C(C)(C)C)c(C)c1` (centres undefined), for which the TGI with SW-620 colon is 21.1 µM; in the assay on NCI-H226 lung it was 10.3 µM; in the assay with OVCAR-5 ovarian, 26.7 µM; with OVCAR-3 ovarian it was 19.2 µM; in the assay with HCT-15 colon it was 21.1 µM; with SF-268 CNS, 20.4 µM. Further, the TGI with SF-539 CNS came to 26 µM; with SK-MEL-5 melanoma it was 12.8 µM; in the assay with TK-10 renal, 27.3 µM; with K-562 leukemia, 16.3 µM; in the assay on LOX IMVI melanoma it was 18.7 µM; in the assay on A549 NSCLC, 16.1 µM.
With `CC(=O)OCCOCNC(=S)N/N=C/c1ccc([N+](=O)[O-])o1`, the TGI in the assay with SW-620 colon, in the assay with NCI-H226 lung, in the assay with OVCAR-5 ovarian, in the assay with OVCAR-3 ovarian, with HCT-15 colon and in the assay on SF-268 CNS was above 100 µM in each case. Moreover, the TGI in the assay with SF-539 CNS, in the assay on SK-MEL-5 melanoma, in the assay on TK-10 renal, in the assay with K-562 leukemia, in the assay on LOX IMVI melanoma and in the assay with A549 NSCLC was above 100 µM each time. Further, in the assay on HT29 colon, the TGI was above 100 µM.
Take `COc1cc(-c2cccs2)sc1-c1cccs1`: the TGI with SW-620 colon, in the assay on NCI-H226 lung, in the assay with OVCAR-5 ovarian, in the assay with OVCAR-3 ovarian, with HCT-15 colon and in the assay on SF-268 CNS was above 100 µM throughout. In addition, the TGI in the assay with SF-539 CNS was above 100 µM; in the assay with SK-MEL-5 melanoma, above 100 µM; in the assay on TK-10 renal it was above 100 µM; in the assay with K-562 leukemia, 51.5 µM; with LOX IMVI melanoma it was above 100 µM; with A549 NSCLC, above 100 µM. This compound yielded a TGI in the assay with HT29 colon of 53.3 µM.
Take `CCOC(=O)/C(=C/c1ccc(OC)cc1)N(CC)CC`: the TGI with SW-620 colon, in the assay with NCI-H226 lung, in the assay on OVCAR-5 ovarian, with OVCAR-3 ovarian, with HCT-15 colon and with SF-268 CNS was above 100 µM throughout. The TGI in the assay on SF-539 CNS, with SK-MEL-5 melanoma, in the assay with TK-10 renal, with K-562 leukemia, in the assay with LOX IMVI melanoma and in the assay on A549 NSCLC was above 100 µM throughout. The TGI with HT29 colon was above 100 µM.
With `CN(C)CC1CCC/C1=N/OC(=O)c1ccccc1` (centres undefined), the TGI with SW-620 colon, in the assay with NCI-H226 lung, in the assay on OVCAR-5 ovarian, in the assay on OVCAR-3 ovarian, in the assay with HCT-15 colon and with SF-268 CNS was above 100 µM throughout. Further, the TGI in the assay with SF-539 CNS, in the assay with SK-MEL-5 melanoma, in the assay on TK-10 renal, with K-562 leukemia, in the assay on LOX IMVI melanoma and with HT29 colon was above 100 µM in each case.
As to `O=C(Nc1nc(=S)[nH][nH]1)C(=O)C(C(=O)c1ccc2ccccc2c1)C1OC(=O)c2ccccc21` (centres undefined), the TGI in the assay on SW-620 colon is above 100 µM; in the assay with NCI-H226 lung, 19.8 µM; in the assay with OVCAR-5 ovarian it was above 100 µM; in the assay with OVCAR-3 ovarian it was 67 µM; with HCT-15 colon, 78.5 µM; in the assay with SF-268 CNS, above 100 µM. In addition, the TGI with SF-539 CNS is 25.2 µM; with SK-MEL-5 melanoma, 43.9 µM; in the assay on TK-10 renal, 80.3 µM; in the assay with K-562 leukemia, 82.9 µM; with LOX IMVI melanoma, 39 µM; in the assay on A549 NSCLC, above 100 µM. In the assay on HT29 colon, this compound registered a TGI above 100 µM.
As for `COc1cc2c(cc1O)[C@H](C)C(c1ccc(OC)c(OC)c1)O2` (some centres undefined), the TGI with SW-620 colon was 19.4 µM; in the assay on NCI-H226 lung, 64.6 µM; in the assay with OVCAR-5 ovarian it was above 100 µM; in the assay with OVCAR-3 ovarian it was 16.6 µM; in the assay on HCT-15 colon, 13.3 µM; with SF-268 CNS, above 100 µM. The TGI was 38.6 µM in the assay with SF-539 CNS; 20.8 µM in the assay with SK-MEL-5 melanoma; 30.1 µM in the assay with TK-10 renal; 17.4 µM in the assay with K-562 leukemia; 16 µM in the assay with LOX IMVI melanoma; above 100 µM in the assay with A549 NSCLC. Moreover, in the assay on HT29 colon, the TGI amounted to 34.5 µM.
Consider `Cc1ccc(Nc2nc(NNC(=O)Cc3ccccc3)nc(NNC(=O)c3ccncc3)n2)cc1`, for which the TGI in the assay with SW-620 colon, in the assay with HCT-15 colon, in the assay on SF-268 CNS, in the assay on SF-539 CNS, in the assay on SK-MEL-5 melanoma and in the assay with TK-10 renal was above 10 µM each time. Also, the TGI in the assay with K-562 leukemia, with LOX IMVI melanoma, in the assay on A549 NSCLC and with HT29 colon was above 10 µM in each case.
In the case of `S=P1(Oc2ccccc2)NNP2(=NP(N3CC3)(N3CC3)=NP(N3CC3)(N3CC3)=N2)NN1` (centres undefined), the TGI with SW-620 colon, in the assay with NCI-H226 lung, with OVCAR-5 ovarian, with OVCAR-3 ovarian, in the assay on HCT-15 colon and in the assay with SF-268 CNS was above 100 µM throughout. Besides, the TGI with SF-539 CNS, in the assay on SK-MEL-5 melanoma, in the assay with TK-10 renal, in the assay on K-562 leukemia, in the assay with LOX IMVI melanoma and in the assay on A549 NSCLC was above 100 µM throughout. Moreover, the TGI in the assay with HT29 colon is above 100 µM.
For `CNC(=O)NCCCC(NC(C)=O)C(=O)NCc1ccccc1` (centres undefined), the TGI in the assay with SW-620 colon, in the assay with NCI-H226 lung, with OVCAR-5 ovarian, with OVCAR-3 ovarian, in the assay with HCT-15 colon and in the assay on SF-268 CNS was above 100 µM throughout. Also, the TGI in the assay on SF-539 CNS, with SK-MEL-5 melanoma, in the assay on TK-10 renal, with K-562 leukemia, in the assay on LOX IMVI melanoma and with A549 NSCLC was above 100 µM throughout. Also, in the assay with HT29 colon, the TGI is above 100 µM.
On to `COc1cc(C2C(Cl)C(=O)N2n2cnc3ccccc3c2=O)ccc1O` (centres undefined), for which the TGI with SW-620 colon, in the assay with NCI-H226 lung, with OVCAR-5 ovarian, in the assay on OVCAR-3 ovarian, in the assay with HCT-15 colon and in the assay on SF-268 CNS was above 100 µM in each case. The TGI in the assay with SK-MEL-5 melanoma, with TK-10 renal, with LOX IMVI melanoma, in the assay with A549 NSCLC and with HT29 colon was above 100 µM each time.
`N#Cc1cccc(-n2[nH]c(=O)ccc2=O)c1`: the TGI in the assay with SW-620 colon, with NCI-H226 lung, in the assay with OVCAR-5 ovarian, in the assay on OVCAR-3 ovarian, with HCT-15 colon and in the assay on SF-268 CNS was above 100 µM throughout. Moreover, the TGI with SF-539 CNS, in the assay with SK-MEL-5 melanoma, in the assay on TK-10 renal, with K-562 leukemia, in the assay with A549 NSCLC and in the assay on HT29 colon was above 100 µM each time.
With `COc1cccc(-c2cc(=O)c3cc(N4CCCCC4)ccc3[nH]2)c1`, the TGI with SW-620 colon is above 100 µM; with NCI-H226 lung, 0.0652 µM; with OVCAR-5 ovarian, above 100 µM; in the assay on OVCAR-3 ovarian, 13.3 µM; in the assay on HCT-15 colon it was above 100 µM; in the assay with SF-268 CNS it was above 100 µM. Besides, the TGI in the assay with SF-539 CNS was 0.0139 µM; in the assay with SK-MEL-5 melanoma, 9.55 µM; in the assay with TK-10 renal, above 100 µM; in the assay on K-562 leukemia, above 100 µM; in the assay on PC-3 prostate it was above 100 µM; with LOX IMVI melanoma, above 100 µM. Besides, the TGI with HT29 colon came to 0.0316 µM.
For the compound `COc1ccc(C2Oc3cc(OC)c(OC)cc3C2CCl)cc1OC` (centres undefined), the TGI in the assay on SW-620 colon, with NCI-H226 lung, in the assay on OVCAR-5 ovarian, with OVCAR-3 ovarian, in the assay with HCT-15 colon and in the assay on SF-268 CNS was above 100 µM in each case. Further, the TGI with SF-539 CNS, in the assay with SK-MEL-5 melanoma, in the assay with TK-10 renal, with K-562 leukemia, in the assay with LOX IMVI melanoma and with A549 NSCLC was above 100 µM each time.
On to `CCNC(=O)c1ccc(C)c(N=NN(C)C)c1`, for which the TGI in the assay on SW-620 colon, in the assay with OVCAR-3 ovarian, in the assay on HCT-15 colon, in the assay with SF-268 CNS, with SF-539 CNS and in the assay with SK-MEL-5 melanoma was above 100 µM each time. The TGI with TK-10 renal, in the assay on LOX IMVI melanoma, with A549 NSCLC and in the assay with HT29 colon was above 100 µM each time.
Take `O=c1cc(-c2ccc3c(c2)OCO3)[nH]c2cc3c(cc12)OCO3`: the TGI was above 100 µM in the assay with SW-620 colon; above 100 µM in the assay on NCI-H226 lung; 43.2 µM in the assay with OVCAR-3 ovarian; above 100 µM in the assay on HCT-15 colon; above 100 µM in the assay with SF-268 CNS; 69.1 µM with SF-539 CNS. Moreover, the TGI with SK-MEL-5 melanoma, in the assay with TK-10 renal, in the assay on K-562 leukemia, with LOX IMVI melanoma, with A549 NSCLC and in the assay with HT29 colon was above 100 µM throughout. For the same compound, the GI50 was 19.5 µM with OVCAR-3 ovarian, 46.8 µM in the assay on SF-268 CNS and 25.4 µM in the assay on SK-MEL-5 melanoma.
